Peptide text beside a SMILES is read from it. * marks the point of attachment. Fmoc = O=C(OCC1c2ccccc2-c2ccccc21)*
Columns and labels:
[1] = Preparation of self-assembled peptide hydrogels by pH adjustment (gel formation); format: physicochemical
Experimental: Fmoc peptides (from BACHEM Ltd) were weighed out into 4 ml glass vials. 2 ml purified water was added followed by sonication for 30-60 seconds. 0.5M NaOH solution was added in 50 μl droplets until a clear solution was formed. 0.1M HCl was added to the solution by stepwise addition of 50 μl followed by mixing using a vortex. pH values were estimated by transferring a spatula tip of hydrogel onto universal indicator paper.
Self-assembled scaffolds were prepared by first suspending the Fmoc-dipeptide in purified water. Upon increase of the pH by addition of concentrated NaOH (thus de-protonating the carboxylic acid group) to a value of >8, a clear solution was obtained. To this solution, concentrated hydrochloric acid was added drop wise until the pH of the solution became 7, at which point a clear, self-supporting gel was formed.
Table 3 below identifies various peptide derivatives (incorporating an aromatic stacking ligand) and mixtures thereof that formed gels at a pH of 6-8 at the indicated concentrations: […]

[2] = test system: human adult dermal fibroblasts; assay: LDH assay of cell viability (3D culture); format: cell-based
Experimental: In order to quantitatively test cell viability in the 3D culture, LDH assay was adopted which tested the amount of lactate dehydrogenase inside cell […] (reflecting cell numbers).
0.0107 gram of Fmoc-Phe-Phe-OH was weighed in a glass vial and sterilized for 30 minutes by an ultraviolet light with bottles of distilled water, filtered NaOH (Sodium Hydroxide, 0.5 M/L), filtered HCl (Hydrochloric Acid, 0.5 M/L), and relevant apparatus (spatulas, pipettes, Vortex). 2 mL of the sterile distilled water was then added into the glass vial of Fmoc-Phe-Phe-OH, and the mixture was vortexed for a few seconds to create a suspension. Afterwards, approximate 100 μL of NaOH was gradually pipetted into the suspension (20 μL each pipetting) and the mixture was vortexed after every addition of the alkaline. The whole mixture was shaken continually until a homogeneous transparent solution was obtained. The basic peptide solution (pH around 10) was finally neutralized to pH 7 by dropwise addition of HCl and pH values were monitored by a pH meter with a micro-probe. […]
The culture was maintained in a 37° C./5% CO2 incubator for a 10 day period and LDH assay was carried out after 1 hour, 1 day, 3 days, 7 days, and 10 days. […] Assay reagent was then added, the mixture was incubated, and light absorbance at 490 nm was then measured. Absorbance was converted to cell number according to a standard. […]

[3] = test system: human adult dermal fibroblasts; assay: 2D culture on surface of self-assembled peptide hydrogel, cell phenotype under inverted light microscope; format: cell-based; settings: for appearance of fibroblasts on top of hydrogel: 10 mM/L gel
Experimental: An initial 2D culture of human adult dermal fibroblasts was carried out on the surface of 10 mM/L Fmoc-Phe-Phe-OH self-assembled peptide hydrogels and cell phenotype was investigated under inverted light microscope.
Generally, 0.0107 gram of Fmoc-Phe-Phe-OH was weighed in a glass vial and sterilized for 30 minutes by an ultraviolet light with bottles of distilled water, filtered NaOH (Sodium Hydroxide, 0.5 M/L), filtered HCl (Hydrochloric Acid, 0.5 M/L), and relevant apparatus (spatulas, pipettes, Vortex). 2 mL of the sterile distilled water was then added into the glass vial of Fmoc-Phe-Phe, and the mixture was vortexed for a few seconds to create a suspension. Afterwards, approximate 100 μL of NaOH was gradually pipetted into the suspension (20 μL each pipetting) and the mixture was vortexed after every addition of the alkaline. The whole mixture was shaken continually until a homogeneous transparent solution was obtained. The basic peptide solution (pH around 10) was finally neutralized to pH 7 by dropwise addition of HCl and pH values were monitored by a pH meter with a micro-probe.
The above peptide solutions of physiological pH were aliquoted into a 24 well-plate with 500 μL in each well and the well plate was maintained in a 37° C./5% CO2 incubator overnight. The solution underwent a self-assembling to become hydrogels. Human adult dermal fibroblasts in suspension were then poured on top of the self-assembled hydrogels with 1 mL cell suspension for each well. Cell suspensions of 8×10^4/mL were used with a serum-free DMEM (Dulbecco's modified Eagle's medium) supplemented by 1% antibiotics/antimicotics. […] These originally spreaded cells, however, became rounded with a diameter of around 10 microns between 24 and 72 hours. The phenomenon indicated of a dynamic solid (gel)-liquid (culture medium) interface which formed a malleable, unstable gel surface to wrap and sink cells into the interacted nano-filaments of the gel structure resulting the cells' rounding up.

Question: Which “Gel?” value ([1]; Component 1 10 mM/L, pH 7) does the source give for `O=C(N[C@@H](Cc1ccccc1)C(=O)N[C@@H](Cc1ccccc1)C(=O)O)OCC1c2ccccc2-c2ccccc21` [Entry 1, Fmoc-Phe-Phe-OH] (Fmoc-Phe-Phe-OH) here?
Answer: ✓

Question: What about the “Concentration” value ([1]; Properties of self-assembled Fmoc-dipeptides (Table 1), concentration range of gel) of the same compound?
Answer: 2900 to 30000 µM

Question: And the pH ([1]; Properties of self-assembled Fmoc-dipeptides (Table 1), pH range of gel)?
Answer: 4-8

Question: And the pH ([1]; pH at which the gel formed at the indicated concentrations (Table 3))?
Answer: 7

Question: And the “cell number (LDH assay), initial course” value ([2]; 3D culture, 10 day period)?
Answer: initially a decreasing of cell numbers

Question: And the “cell number increase (LDH assay)” value ([2]; from day 7 to day 10, 3D culture)?
Answer: 5 folds

Question: And the “appearance of fibroblasts on top of hydrogel” value (shortened to “appearance of fibroblasts”) ([3]; 4 hours, 2D culture)?
Answer: spreaded

Question: And the “appearance of fibroblasts” value ([3]; 6 hours, 2D culture)?
Answer: spreaded

Question: What about the “appearance of fibroblasts” value ([3]; 24 hours, 2D culture) of the same compound?
Answer: rounded

Question: What about the “diameter of rounded cells” value ([3]; between 24 and 72 hours, 2D culture) of the same compound?
Answer: around 10 microns

Question: And the “cell attachment and spreading” value ([3]; within the first 8 hours of culturing, 2D)?
Answer: cell attachment and spreading was observed
